Assay results reported in US20180193294A1, “Dehydroabietic acid (DHAA) derivatives for use as ion channel openers” (priority 2015, published 2018).
Like-named read-outs stand apart in the source and are kept apart here.

Tests used:
3R Shaker K channel = 3R Shaker K channel (Drosophila melanogaster, UniProt P08510, A359R/M356R); assay: physchem; format: cell-based; conditions: for pKa: Drosophila melanogaster, from pH dependence of G(V) shift; for G(V) shift: Table 1; for G(V) shift / compound-induced G(V) shift (mean±SEM): pH 7.4, Xenopus oocytes; for Effects on K channel Mean ± SEM: Table 2, K channel expressed in Xenopus oocytes; for maximum shift: dose dependence fit; for relative current amplitude: representative traces at voltage giving 10% of maximum conductance in control
Summary of the method: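 Two-electrode voltage clamp at 20-23° C. in oocytes (also CHO-K1 stable line, manual patch clamp) expressing Shaker H4 lacking N-type inactivation; 1K extracellular solution, pH 7.4, holding −80 mV, 100-ms 5-mV steps up to +70 mV. Compound-induced G(V) shift taken at 10% of control Gmax (oocytes) or as V1/2 difference (CHO-K1).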

HL-1 cells = assay: Membrane potential and firing of spontaneously beating HL-1 cells, whole-cell current clamp; format: cell-based; conditions: 10 uM
Protocol: All conventional chemicals were purchased from Sigma-Aldrich (Stockholm, Sweden). The DHAA derivatives were diluted in ethanol in a 100 mM stock solution. The stock solutions were stored at −20 t for further use.
The cell culture was done according to a previous study (Claycomb et al., Proceedings of the National Academy of Sciences of the United States of America 1998; 95:2979-2984). In brief, cells were grown on gelating fibronectin coated T75 flasks. They were maintained in Claycomb Medium which was supplemented with 10% fetal bovine serum, 2 mM L-glutamine, 0.1 mM noradrenaline, and 100 U/ml, 100 μg/ml penicillin-streptomycin. Enzymatic dissociation with 0.05% trypsin-EDTA was done after full confluence. Isolated cells were plated on fibronectin-gelatin coated plastic coverslips and used for recording.
Whole-cell current-clamp recordings were done on confluent cells at 35±1° C., using an Axopatch 200B amplifier (Molecular Devices, Sunnyvale, Calif.). Patch pipettes were fabricated from borosilicate capillary glass on a vertical pipette puller and had resistances of 3-5 MO. Data were stored on a computer through Digidata 1440A interface (Molecular Devices), and was analyzed with pCLAMP software (version 10.1, Molecular Devices). The bath solution contained the following (in mM): 140 NaCl, 5.4 KCl, 1 MgCl2, 1.8 CaCl2, 10 HEPES, and 10 glucose (pH adjusted to 7.4 with NaOH). The micropipettes were filled with a solution containing (in mM): 130 K-gluconate, 9 KCl, 8 NaCl, 1 MgCl2, 10 EGTA, 10 HEPES, and 3 Na2ATP (pH adjusted to 7.3 with KOH).

3R Shaker K channel, sequence (P08510 whole entry M356R/A359R): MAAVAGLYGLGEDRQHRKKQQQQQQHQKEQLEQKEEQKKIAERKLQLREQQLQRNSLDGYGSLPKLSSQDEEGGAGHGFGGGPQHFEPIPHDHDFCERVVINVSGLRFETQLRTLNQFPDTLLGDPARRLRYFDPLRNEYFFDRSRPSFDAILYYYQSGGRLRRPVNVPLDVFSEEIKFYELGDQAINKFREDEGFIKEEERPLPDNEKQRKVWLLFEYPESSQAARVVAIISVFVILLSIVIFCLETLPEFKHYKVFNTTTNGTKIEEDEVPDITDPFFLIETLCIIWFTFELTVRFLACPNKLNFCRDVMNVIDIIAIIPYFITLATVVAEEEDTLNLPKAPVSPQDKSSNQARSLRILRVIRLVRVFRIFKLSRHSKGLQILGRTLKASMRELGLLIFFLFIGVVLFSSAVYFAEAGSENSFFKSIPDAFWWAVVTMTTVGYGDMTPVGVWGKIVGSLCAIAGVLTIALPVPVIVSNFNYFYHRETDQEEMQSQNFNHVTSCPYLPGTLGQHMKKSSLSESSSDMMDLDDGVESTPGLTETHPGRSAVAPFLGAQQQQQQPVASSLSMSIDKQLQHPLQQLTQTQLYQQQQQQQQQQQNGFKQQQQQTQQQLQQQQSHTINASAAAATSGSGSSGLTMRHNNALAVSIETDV

Structure (SMILES) | increase in G(V) shift relative to DHAA (ΔVc7, ΔVhalo, ΔVtot) (3R Shaker K channel; 100 μM, pH 7.4) [mV] | pKa (3R Shaker K channel; 100 μM) | G(V) shift (3R Shaker K channel; 100 μM) [mV] | Effects on K channel Mean ± SEM (3R Shaker K channel) [mV] | factor of increase of the G(V) shift by bromination of C12 with methyloxime at C7 (3R Shaker K channel; Wu32 versus Wu36, 100 μM, pH 7.4) | Kd (3R Shaker K channel; c1/2 of dose dependence of G(V) shift (Eq. 3), pH 7.4, read-out: Kd-value) [µM] | maximum shift (3R Shaker K channel; pH 7.4) [mV] | shift more than expected from simple addition (3R Shaker K channel; methyloxime at C7 plus Br-12, 100 μM, pH 7.4) [mV] | relative current amplitude (3R Shaker K channel; 100 μM, pH 7.4) [times] | Effects on HL-1 cells Mean (membrane potential) (HL-1 cells) [mV] | effect on membrane potential of HL-1 cells (HL-1 cells) | compound-induced G(V) shift (mean±SEM) (3R Shaker K channel; 100 μM) | effect on G(V) shift / current compared with DHAA (3R Shaker K channel; C7-modified DHAA, 100 μM, pH 7.4) | Kd (3R Shaker K channel) [µM] | ΔG(V) at 1 μM (3R Shaker K channel; 1 μM, pH 7.4) [mV] | ΔG(V) of representative G(V) curves (single examples) (3R Shaker K channel; 100 μM, pH 7.4, same cells as representative traces) [mV]
CO/N=C1\CC2[C@](C)(C(=O)O)CCC[C@]2(C)c2cc(Br)c(C(C)C)cc21 (stereo partly drawn) [Wu32, (1R,4aS,E)-6-bromo-7-isopropyl-9-(methoxyimino)-1,4a-dimethyl-1,2,3,4,4a,9,10,10a-octahydrophenanthrene-1-carboxylic acid] | −18.5 | 5.8 | −30.0 | −30.0 ± 1.8 | 2.5 | 37 | −41 | −15.5 | 10.8 | −3.6 | intermediate effect on the HL-1 cells | – | – | – | – | –
CC(C)c1ccc2c(c1)C(C(=O)O)CC1[C@](C)(C(=O)O)CCC[C@]21C (stereo partly drawn) [Wu35] | – | – | −1.3 | −1.2 ± 0.6 | – | – | – | – | 1.3 | 1.5 | no effect on the HL-1 cells | no effect on the K channel | clearly reduced the current increase | – | – | –
C[C@@]1(C(=O)O)CCC[C@]2(C)c3cc(Cl)c(Cl)c(Cl)c3CCC12 (stereo partly drawn) [Wu50, (1R,4aS)-6,7,8-trichloro-1,4a-dimethyl-1,2,3,4,4a,9,10,10a-octahydrophenanthrene-1-carboxylic acid] | – | 6.5 | −31.6 | −31.6 ± 2.1 | – | – | −46 | – | – | −5.5 | – | −31.6±2.1 mV | – | 37 | −1.3±0.3 | −32.6
